Test results: patent publication US10590128B2, “6,7,8,9-tetrahydro-5H-pyrido[2,3-d]azepine dopamine D3 ligands” (Pfizer Inc., priority 2016, dated 2020)

Assays:
[1] = target: human dopamine D2 receptor (hD2R) (Homo sapiens, UniProt P14416); experiment: Human D2 receptor binding assay ([^3H]-Spiperone); settings: CHO cells expressing hD2R, geometric mean of 2-5 determinations unless marked b (single determination)
[2] = target: human dopamine D3 receptor (hD3R) (Homo sapiens, UniProt P35462); experiment: Human D3 receptor binding assay ([^3H]-7-OH-DPAT); settings: CHO cells expressing hD3R, geometric mean of 2-5 determinations unless marked b (single determination), read-out: hD3 in CHO cells Ki
Sequence of human dopamine D3 receptor (hD3R) (P35462 whole entry): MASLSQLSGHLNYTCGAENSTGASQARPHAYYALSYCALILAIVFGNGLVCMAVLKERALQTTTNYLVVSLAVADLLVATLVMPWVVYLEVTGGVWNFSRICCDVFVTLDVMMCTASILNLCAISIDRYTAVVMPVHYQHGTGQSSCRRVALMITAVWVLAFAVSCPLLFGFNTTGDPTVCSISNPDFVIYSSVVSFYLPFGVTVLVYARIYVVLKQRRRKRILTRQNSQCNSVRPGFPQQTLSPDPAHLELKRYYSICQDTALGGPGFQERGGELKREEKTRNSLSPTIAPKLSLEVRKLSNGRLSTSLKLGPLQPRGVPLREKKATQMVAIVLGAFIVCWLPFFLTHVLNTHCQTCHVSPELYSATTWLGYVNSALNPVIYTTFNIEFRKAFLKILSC

Sequence of human dopamine D2 receptor (hD2R) (P14416 whole entry): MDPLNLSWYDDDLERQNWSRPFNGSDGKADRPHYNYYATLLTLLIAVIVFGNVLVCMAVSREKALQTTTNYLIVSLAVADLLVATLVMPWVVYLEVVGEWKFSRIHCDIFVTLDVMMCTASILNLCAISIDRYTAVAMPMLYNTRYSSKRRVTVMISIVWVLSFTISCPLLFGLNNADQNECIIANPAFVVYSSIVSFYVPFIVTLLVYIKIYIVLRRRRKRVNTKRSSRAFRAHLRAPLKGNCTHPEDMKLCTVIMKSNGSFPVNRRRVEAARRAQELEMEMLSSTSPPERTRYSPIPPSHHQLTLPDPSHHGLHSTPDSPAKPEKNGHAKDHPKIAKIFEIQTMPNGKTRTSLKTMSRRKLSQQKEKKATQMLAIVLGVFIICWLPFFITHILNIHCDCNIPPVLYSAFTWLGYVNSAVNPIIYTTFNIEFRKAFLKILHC

SMILES	Ki [1] [nM]	Ki [2] [nM]
COc1nc2c(cc1NS(=O)(=O)c1ccc([C@H]3C[C@@H](OC)C3)cc1)CCN(C)CC2 [Example 81, 4-(cis-3-methoxycyclobutyl)-N-(2-methoxy-7-methyl-6,7,8,9-tetrahydro-5H-pyrido[2,3-d]azepin-3-yl)benzenesulfonamide]	311	1.19
COc1nc2c(cc1NS(=O)(=O)c1ccc(C3CCC3)nc1)CCN(C)CC2 [Example 113, 6-cyclobutyl-N-(2-methoxy-7-methyl-6,7,8,9-tetrahydro-5H-pyrido[2,3-d]azepin-3-yl)pyridine-3-sulfonamide]	143	3.94
CCN1CCc2cc(NS(=O)(=O)c3ccc(Cl)cc3)c(C)nc2CC1 [Example 138, 4-chloro-N-(7-ethyl-2-methyl-6,7,8,9-tetrahydro-5H-pyrido[2,3-d]azepin-3-yl)benzenesulfonamide]	> 4190	288
COc1nc2c(cc1NS(=O)(=O)c1cnc(OC3CCCC3)nc1)CCN(C)CC2 [Example 18, 2-(cyclopentyloxy)-N-(2-methoxy-7-methyl-6,7,8,9-tetrahydro-5H-pyrido[2,3-d]azepin-3-yl)pyrimidine-5-sulfonamide]	142	3.58
COc1nc2c(cc1NS(=O)(=O)c1ccc(C3CC(F)CCO3)cc1)CCN(C)CC2 (single isomer, unassigned; diastereomer-1) [Example 108, 4-(4-fluorotetrahydro-2H-pyran-2-yl)-N-(2-methoxy-7-methyl-6,7,8,9-tetrahydro-5H-pyrido[2,3-d]azepin-3-yl)benzenesulfonamide, diastereomer-1]	1930	15.1
COc1nc2c(cc1NS(=O)(=O)c1ccc([C@H]3CCCCO3)cc1)CCN(C)CC2 [Example 7, N-(2-Methoxy-7-methyl-6,7,8,9-tetrahydro-5H-pyrido[2,3-d]azepin-3-yl)-4-[(2R)-tetrahydro-2H-pyran-2-yl]benzenesulfonamide]	65.5	1.39
CCO[C@H]1C[C@@H](c2ccc(S(=O)(=O)Nc3cc4c(nc3OC)CCN(C)CC4)cc2)C1 [Example 21, 4-(cis-3-ethoxycyclobutyl)-N-(2-methoxy-7-methyl-6,7,8,9-tetrahydro-5H-pyrido[2,3-d]azepin-3-yl)benzenesulfonamide]	25.5	0.967
